This note sets out measurements from ChEMBL document CHEMBL4028834, “Stereoselective synthesis of enantiopure N-substituted pyrrolidin-2,5-dione derivatives by 1,3-dipolar cycloaddition and assessment of their in vitro antioxidant and antibacterial activities” (Bioorg Med Chem Lett, 2017).

Converted amounts (≈) assume the structure as drawn.

Holding throughout (format): functional
Experiment [1] is described as follows: Antioxidant activity assessed as DPPH free radical scavenging activity at 2.5 mg/ml incubated for 20 mins in dark (reference value: 1 to 9%).
A short description of experiment [2]: Antioxidant activity assessed as reduction in beta-carotene/linoleic acid bleaching activity at 2.5 mg/ml after 2 hrs by spectrophotometric method (reference value: 1 to 8%). More on the design: scale not given: the % may be the effect or the level left.
Experiment [3] in a line: Antioxidant activity assessed as DPPH free radical scavenging activity at 0.5 mg/ml incubated for 20 mins in dark (reference value: 1 to 9 %). A general note: DPPH is a stable violet radical that fades when it is reduced.
The nature of experiment [4]: Antioxidant activity assessed as DPPH free radical scavenging activity at 3 mg/ml incubated for 20 mins in dark (reference value: 1 to 9%).
The nature of experiment [5]: Antioxidant activity assessed as DPPH free radical scavenging activity at 2 mg/ml incubated for 20 mins in dark (reference value: 1 to 9%).
Experiment [6] is described as follows: Antioxidant activity assessed as reduction in beta-carotene/linoleic acid bleaching activity at 0.5 mg/ml after 2 hrs by spectrophotometric method (reference value: 1 to 8 %). Set-up: scale not given: the % may be the effect or the level left.
A short description of experiment [7]: Antioxidant activity assessed as reduction in beta-carotene/linoleic acid bleaching activity after 2 hrs by spectrophotometric method.
Experiment [8] in a line: Antioxidant activity assessed as reduction in beta-carotene/linoleic acid bleaching activity at 1 mg/ml after 2 hrs by spectrophotometric method (reference value: 1 to 8%). Set-up: scale not given: the % may be the effect or the level left.
Experiment [9] is described as follows: Antioxidant activity assessed as reduction in beta-carotene/linoleic acid bleaching activity at 3 mg/ml after 2 hrs by spectrophotometric method (reference value: 1 to 8%). Set-up: scale not given: the % may be the effect or the level left.
Experiment [10] is described as follows: Antioxidant activity assessed as DPPH free radical scavenging activity at 1 mg/ml incubated for 20 mins in dark (reference value: 1 to 9%).
The nature of experiment [11]: Antioxidant activity assessed as reduction in beta-carotene/linoleic acid bleaching activity at 2 mg/ml after 2 hrs by spectrophotometric method (reference value: 1 to 8%). More on the design: scale not given: the % may be the effect or the level left.
Experiment [12] can be described thus: Antioxidant activity assessed as DPPH free radical scavenging activity incubated for 20 mins in dark.
Experiment [13] in a line: Antioxidant activity assessed as ABTS radical scavenging activity at 2 mg/ml incubated for 2 hrs in dark by spectrophotometric analysis (reference value: 1 to 9%).
Experiment [14] in a line: Antioxidant activity assessed as ABTS radical scavenging activity incubated for 2 hrs in dark by spectrophotometric analysis.
Experiment [15] in a line: Antioxidant activity assessed as ABTS radical scavenging activity at 2.5 mg/ml incubated for 2 hrs in dark by spectrophotometric analysis (reference value: 1 to 9%).
Experiment [16] is described as follows: Antioxidant activity assessed as ABTS radical scavenging activity at 0.5 mg/ml incubated for 2 hrs in dark by spectrophotometric analysis (reference value: 1 to 9 %).
The nature of experiment [17]: Antioxidant activity assessed as ABTS radical scavenging activity at 1 mg/ml incubated for 2 hrs in dark by spectrophotometric analysis (reference value: 1 to 9%).
Experiment [18] is described as follows: Antioxidant activity assessed as ABTS radical scavenging activity at 3 mg/ml incubated for 2 hrs in dark by spectrophotometric analysis (reference value: 1 to 9%).

Take `Cc1cc(C(C)(C)C)c(O)c(C(C)(C)C)c1` [BUTYLATED HYDROXYTOLUENE]: the Activity is 85.2% in [1]; 75.1% in experiment [2]; 33.8% in experiment [3]; 85.8% in [4]; 84.8% in [5]; 39.6% in experiment [6]. For the same compound, the Activity in experiment [8] came to 52.3%; in [9] it was 79.2%; in experiment [10], 69.2%; in [11], 65.9%. The IC50 (commonly the concentration that gives 50% inhibition) is 0.93 mg/mL (≈ 4.22 mM) in [7] and 0.72 mg/mL (≈ 3.27 mM) in experiment [12].

On to `CC(C)[C@@H]1CC[C@@H](C)C[C@@]12N(C)C(=O)[C@@H]1[C@H]3C(=O)NC(=O)[C@H]3ON12`, for which the Activity in [13] amounted to 57.2%; in [1], 67.2%; in experiment [2] it was 38%; in [3], 21.6%; in experiment [4] it was 80.3%; in [15], 70%. Further, the Activity in experiment [16] came to 23.5%; in experiment [5] it was 58.7%; in experiment [6], 25.9%; in experiment [8] it was 35.6%; in [9], 47.2%; in experiment [10], 39.3%. Also, the Activity in [17] is 42.6%; in experiment [18], 72%; in [11], 37.1%; in [12] it was “Dose-dependent effect”. Moreover, the IC50 in experiment [14] turned out to be 1.5 mg/mL (≈ 4.47 mM); in experiment [12], 1.55 mg/mL (≈ 4.62 mM).

Consider `CC(C)[C@@H]1CC[C@@H](C)C[C@@]12N(C)C(=O)[C@@H]1[C@H]3C(=O)N(c4ccccc4)C(=O)[C@H]3ON12`, for which the Activity was determined as 41% in experiment [13]; 76.2% in experiment [1]; 53.1% in experiment [2]; 21.6% in [3]; 80.7% in experiment [4]; 58.6% in experiment [15]. Also, the Activity in [16] was found to be 14.7%; in experiment [5] it was 74.2%; in experiment [6] it was 28.7%; in experiment [8], 35.4%; in experiment [9], 58.9%; in experiment [10], 54.9%. Further, the Activity in experiment [17] was 29.7%; in [18], 73.5%; in [11], 48.2%; in experiment [12] it was “Dose-dependent effect”. Besides, the IC50 is 2.25 mg/mL (≈ 5.47 mM) in [14], 2.31 mg/mL (≈ 5.61 mM) in [7] and 0.9 mg/mL (≈ 2.19 mM) in experiment [12].

Consider `Cc1c(C)c2c(c(C)c1O)CCC(C)(C(=O)O)O2` (stereo unspecified) [TROLOX], for which the Activity in experiment [13] is 89.2%; in experiment [15], 90.8%; in [16] it was 82.1%; in experiment [17], 85.5%; in experiment [18], 91.8%. For the same compound, the IC50 in [14] was determined as 0.3 mg/mL (≈ 1.2 mM).

In the case of `CC(C)[C@@H]1CC[C@@H](C)C[C@@]12N(C)C(=O)[C@@H]1[C@H]3C(=O)N(C)C(=O)[C@H]3ON12`, the Activity came out at 59.9% in experiment [13]; 55.8% in experiment [1]; 57.2% in experiment [2]; 18.2% in [3]; 64% in experiment [4]; 70.3% in [15]. For the same compound, the Activity was 39.2% in experiment [16]; 53.4% in [5]; 36.5% in experiment [6]; 47.7% in experiment [8]; 67.5% in [9]; 43.1% in [10]. Also, the Activity in [17] was 41.5%; in experiment [18], 75.3%; in experiment [11], 49.7%; in experiment [12] it was “Dose-dependent effect”. Also, the IC50 in experiment [14] was found to be 1.4 mg/mL (≈ 4.01 mM); in [7] it was 2.16 mg/mL (≈ 6.18 mM); in experiment [12], 1.65 mg/mL (≈ 4.72 mM).

For `Cc1cccc(N2C(=O)[C@H]3[C@H](ON4[C@@H]3C(=O)N(C)[C@@]43C[C@H](C)CC[C@H]3C(C)C)C2=O)c1`, the Activity in experiment [13] came out at 35.3%; in experiment [1], 57.5%; in experiment [2] it was 57.6%; in [3], 26.8%; in experiment [4] it was 73.8%; in experiment [15], 47.7%. Also, the Activity in experiment [16] stood at 16.1%; in [5], 49.9%; in [6], 25%; in experiment [8], 39%; in experiment [9], 65.8%; in [10] it was 38.7%. Besides, the Activity in experiment [17] was 25.8%; in experiment [18] it was 52.4%; in experiment [11], 43.6%; in experiment [12] it was “Dose-dependent effect”. For the same compound, the IC50 in [14] turned out to be 2.7 mg/mL (≈ 6.35 mM); in [7], 1.93 mg/mL (≈ 4.54 mM); in [12] it was 1.88 mg/mL (≈ 4.42 mM).

With `CC(C)[C@@H]1CC[C@@H](C)C[C@@]12N(C)C(=O)[C@@H]1[C@H]3C(=O)N(c4ccc5ccccc5c4)C(=O)[C@H]3ON12`, the Activity is 43.6% in [13]; 39.5% in experiment [1]; 45.1% in experiment [2]; 13.8% in experiment [3]; 50.9% in [4]; 47.9% in experiment [15]. Further, the Activity in experiment [16] was 25.4%; in experiment [5] it was 35%; in experiment [6], 24.5%; in [8] it was 29.6%; in [9] it was 57.4%; in experiment [10] it was 27.6%. For the same compound, the Activity in experiment [17] was 33.2%; in experiment [18], 60.1%; in experiment [11] it was 36.5%; in [12] it was “Dose-dependent effect”. The IC50 in experiment [14] was 2.52 mg/mL (≈ 5.46 mM); in experiment [7], 2.68 mg/mL (≈ 5.81 mM); in experiment [12] it was 2.92 mg/mL (≈ 6.33 mM).

As to `CC(C)[C@@H]1CC[C@@H](C)C[C@@]12N(C)C(=O)[C@@H]1[C@H]3C(=O)N(c4ccc(Cl)cc4)C(=O)[C@H]3ON12`, the Activity in experiment [13] was 49.4%; in [1] it was 53.1%; in experiment [2], 61.3%; in experiment [3], 18.1%; in experiment [4], 47.2 to 63.9%; in [15], 60.1%. In addition, the Activity is 29.7% in experiment [16]; 48.2% in experiment [5]; 47.5% in experiment [6]; 53.7% in experiment [8]; 73.2% in experiment [9]; 31.7% in experiment [10]. Moreover, the Activity is 39.9% in experiment [17], 74% in experiment [18], 56.4% in experiment [11] and “Dose-dependent effect” in [12]. Also, the IC50 in experiment [14] came out at 2 mg/mL (≈ 4.48 mM); in experiment [7], 0.71 mg/mL (≈ 1.59 mM); in experiment [12] it was 2.15 mg/mL (≈ 4.82 mM).
